Laboratory results taken from patent publication US20130116326A1, “TREATMENT OF DELAYED CUTANEOUS HYPERSENSITIVITY CONDITIONS WITH S-FARNESYLTHIOSALICYLIC ACID AND ANALOGS THEREOF” (RAMOT AT TEL-AVIV UNIVERSITY LTD., priority 2010, published 2013).
“Also recorded” adds a separate entry of the source.

Key:
[1] = tested on: Rap1; assay: Rap1 GTP loading in Panc-1 cells; assay type: cell-based; settings: for inhibition of Rap1 GTP loading: Panc-1 cells, FIG. 6A; for selectivity between Ras and Rap1: profile of inhibition Ras versus Rap1
Description: (§1) Jurkat T cells were obtained from the American Type Culture Collection (ATCC) (Manassas, VA). The cells were maintained in RPMI 1640 supplemented with 10% FCS, 2 mM 1-glutamine, and 1% penicillin/streptomycin (Biological Industries, Kibutz Beit Haemek, Israel). Panc-1 cells (ATCC) were grown in Dulbecco's modified Eagle medium (DMEM) containing 10% FCS, 2 mM 1-glutamine, and 1% penicillin/streptomycin. The cells were incubated at 37° C. in a humidified atmosphere of 95% air and 5% CO2. Transfection of Jurkat cells was performed with DMRIE-C (Invitrogen, Carlsbad, Calif.), and cells were examined 24 to 48 hours later. Jurkat T cells were serum starved at 37° C. for 2 to 6 hours, followed by stimulation with 5 μg/ml of mouse anti-human CD3.
(§2) Detection of activated Ras and Rap1 was performed as described previously (4, 9).
(§3) Since FTS is known to inhibit Ras, experiments were designed to determine whether the mechanism of Rap1 inhibition by FTS analogs is indirect and mediated by Ras inhibition. Applicants compared the inhibitory profile of FTS and its analogs on both Ras GTP loading and Rap1 GTP loading in Panc-1 cells (FIG. 6B). […] J Med Chem 2009; 52:197-205]. […] Thus, the extent of Ras and Rap1 inhibition by FTS and its analogs is not identical.

[2] = tested on: contact sensitivity reaction to DNFB; assay: Contact sensitivity to DNFB, ear swelling in mice; assay type: in vivo, BALB/c female mice
Description: The Institutional Ethics Committee of Tel Aviv University approved the study. BALB/c female mice at 8 to 10 weeks of age were used. Oral administration of FTS-A required doses of 50 and 100 mg/kg (10). The compound 2,4-dinitro-l-fluorobenzene (DNFB) and olive oil were obtained from Sigma-Aldrich (St. Louis, Mo.). Mice were sensitized on the shaved abdomen with 50 μl of 0.5% DNFB in a vehicle of 4:1 acetone:olive oil. Mice were ear challenged with 20 μl t of 0.2% DNFB in a vehicle of 4:1 acetone:olive oil after 5 days. A constant area of the ears was measured immediately before challenge and 24 hours later with an engineer's micrometer (Ozaki Mfg. Co., Itabashi, Tokyo). Ear swelling was expressed as the difference in ear thickness before and after the challenge (11).
Next, the ability of FTS-A to inhibit Rap-1-dependent T cell adhesion in vivo was investigated by using contact sensitivity (15) as a model system. Animals were treated orally with two different concentrations of FTS-A (50 mg/kg and 100 mg/kg). […] When treatment was introduced only during the challenge phase (days 5-6), ear swelling was also attenuated.

[3] = tested on: Rap1; assay: GST pull-down of GTP.Rap1 (Rap1 GTP loading) in Jurkat T cells; assay type: cell-based, human; settings: for lowering of the amount of GTP.Rap1: Jurkat T cells treated overnight, then stimulated with anti CD3 antibodies for 10 minutes, FIG. 1C; for amount of GTP.Rap1 compared with untreated cells: quiescent Jurkat T cells, treated overnight, 50 μM, FIG. 1A; for ability to inhibit Rap1 activation, comparison among agents: 50 μM overnight
Description: as §1, §2
Samples were separated by SDS-PAGE using 10% polyacrylamide gels and transferred to nitrocellulose filters. Blots were blocked for 1 hour in TBST (10 mM Tris-HCl (pH 8.0), 150 mM NaCl, and 0.05% Tween 20) containing 3% serum bovine albumin, followed by overnight incubation at 4° C. with the primary antibodies. Blots were washed and incubated for 1 hour at room temperature with HRP-conjugated secondary antibodies. Immunoreactive bands were visualized using the LAS-3000 imaging system (Fujifilm Corp., Tokyo).
The experiments were designed to determine whether FTS and its analogs are able to inhibit GTP loading of Rap1. Quiescent Jurkat T cells were treated overnight with FTS, FTS-A, and FTS-MOM, each at a concentration of 50 μM. Cells were collected and the quantity of GTP.Rap1 was determined by pull-down assay. Compared with untreated cells (control), the amount of GTP.Rap1 decreased in all conditions (FIG. 1A). […] Since Rap1 is activated in T cells as a result of crosslinking the antigen receptor, the effect of FTS, and its analogs, on Rap1 activation in stimulated T cells, was studied. Cells were treated with FTS and its analogs overnight, and subsequently stimulated with anti CD3 antibodies for 10 minutes. […] FTS lowered the amount of GTP.Rap1 by 32%, while FTS-A and FTS-MOM lowered it by 60% and 53%, respectively (FIG. 1C). Thus, FTS and its analogs are able to inhibit Rap1 activation in T cells stimulated through the antigen receptor.

[4] = tested on: Ras; assay: Ras GTP loading in Panc-1 cells; assay type: cell-based; settings: FIG. 6, also as previously reported (ref. 16)
Description: as §1, §2, §3

[5] = tested on: Rap1; assay: Rap1 inhibition by geranylgeranyl analogue (data not shown)
[6] = tested on: T cells; assay: Viable cell count by tryptan blue exclusion; assay type: cell-based; settings: various concentrations for 72 hours, higher doses, FIG. 3A
Description: Thus, this analog was used for further experiments. First, […] were treated with various concentrations of FTS-A for 72 hours.

[7] = tested on: Rap1; assay: Confocal microscopy of Rap1 localization and activation in Jurkat T cells; assay type: cell-based, human
Description: Live cells were plated in 35-mm dishes containing a no. 0 glass coverslip over a 15-mm cutout (MatTek, Ashland, Mass). Cells were maintained at 37° C. using a PDMI-2 microincubator (Harvard Apparatus, Holliston, Mass.). Individual cells were imaged before and after addition of stimuli. Images were acquired with a Zeiss 510 inverted laser scanning confocal microscope (Carl Zeiss Microlmaging, Inc., Thornwood, N.Y.) and processed with Adobe Photoshop CS.
It has been reported that only the pool of Rap1 at the plasma membrane becomes GTP bound on lymphocyte activation (9). The following experiments were designed to study whether Rap1 inhibition by FTS-A is indeed restricted to that compartment. Jurkat T cells, expressing GFP tagged Rap1, were subjected to various agents (FIG. 4A), whereas the localization of Rap1 was recorded by confocal microscopy.
The effects of FTS are rather specific to the active GTP-bound forms of Ras proteins (7). To investigate the possible effect of FTS-A on localization of the active Rap1, the probe for activated Rap1, GFP-RBDRALGDS (13), was utilized. […] In cells that were pretreated by FTS-A, the activation of Rap1 at the plasma membrane was blocked (FIG. 4B) although Rap1 remained associated with the plasma membrane (FIG. 4A). Thus, the pool of Rap1 that is inhibited by FTS-A is found at the plasma membrane.

Row | Compound | inhibition of Rap1 GTP loading [1] | selectivity between Ras and Rap1 [1] | activation phase of delayed cutaneous hypersensitivity in vivo ([2]; summary statement) | lowering of the amount of GTP.Rap1 [3] [%] | amount of GTP.Rap1 compared with untreated cells [3] | inhibition of Ras GTP loading [4] | Rap1 inhibition compared with FTS analogs [5] | ability to inhibit Rap1 activation, comparison among agents ([3]; Jurkat T cells) | development of contact sensitivity reaction to DNFB ([2]; animal models, dose not given) | ear swelling ([2]; oral, 50 mg/kg, FIG. 5A) | ear swelling ([2]; oral, 100 mg/kg, FIG. 5A) | ear swelling ([2]; treatment during the sensitization phase (days 0-2), FIG. 5B) | ear swelling ([2]; treatment only during the challenge phase (days 5-6), FIG. 5B) | number of viable cells [6] | activation of Rap1 at the plasma membrane ([7]; GFP-RBDRALGDS probe, pretreated cells stimulated through the antigen receptor, FIG. 4B) | localization of overexpressed Rap1 ([7]; Jurkat T cells expressing GFP tagged Rap1, treatment up to 72 hours, FIG. 4A) | localization of Rap-1 ([7]; combined treatment with Bryostatin-1 and FTS-A, FIG. 4A) | inhibitory effect on Rap1 when Ras is knocked down ([3]; Jurkat T cells, N-Ras and K-Ras knocked down via shRNA, FIG. 6B) | amount of GTP.Rap1, dose-response ([3]; higher doses of FTS-A, FIG. 3B)
1 | CC(C)=CCC/C(C)=C/CC/C(C)=C/CSc1ccccc1C(=O)O [FTS, S-trans,trans-farnesylthiosalicylic acid] | relatively modest | relatively high selectivity of FTS towards Ras | inhibits | 32 | decreased | comparable to FTS-A |  |  |  |  |  |  |  |  |  |  |  |  | 
2 | CC(C)=CCC/C(C)=C/CC/C(C)=C/CC/C(C)=C/CSc1ccccc1C(=O)O [GGTS] |  |  |  |  |  |  | did not prove to be a stronger Rap1 inhibitor |  |  |  |  |  |  |  |  |  |  |  | 
3 | COCOC(=O)c1ccccc1SCC=C(C)CCC=C(C)CCC=C(C)C [FTS-MOM, methoxymethyl S-farnesylthiosalicylate] | by far the stronger Rap1 inhibitor; also recorded: strong Rap1 inhibitor | toward Rap1 |  | 53 | decreased | weak Ras inhibitor; also recorded: only a minor inhibitory effect |  | superior to FTS |  |  |  |  |  |  |  |  |  |  | 
4 | CC(C)=CCCC(C)=CCCC(C)=CCSc1ccccc1C(N)=O [FTS-A, FTS-amide] | much greater inhibitory activity toward Rap1 than FTS | inhibited both Ras and Rap1 |  | 60 | decreased |  |  | superior to FTS; also recorded: greatest amount of Rap1 inhibition | strongly inhibited | only the higher concentration of FTS-A was able to inhibit ear swelling | able to inhibit ear swelling | did not prevent ear swelling | attenuated | decreased | blocked | did not change | did not change | unchanged | further diminished
